One data set relates to human erythrocytes. Put plainly: Hemolysis assay. As to conditions: 0.2–400 μM, 2 hours, 37 °C. The format is cell-based. The procedure: To evaluate cytotoxicity, the hemolysis of the compounds with the best simultaneous blocking activity on the channels (6e, 6f, 7a, 7b and 7c) was considered, modifying the protocol of Chen 2018 ([112]). Thus, non-heparinized human blood was collected. Erythrocytes were washed three times in 1× PBS (phosphate-buffered saline: NaCl, 8 g/L; KCl, 0.2 g/L; Na2HPO4, 1.44 g/L; and KH2PO4, 0.24 g/L; pH 7.4) and then used to prepare a 3% red blood cell (RBC) suspension. The assay was performed in a 96-well polypropylene microplate.
The compounds were prepared from 200 mM stock solutions in DMSO. Subsequently, 1:2 serial dilutions were made in 1× PBS, with final concentrations from 400 to 0.2 μM to a final volume of 200 μl per well. The microplate was incubated for 2 h at 37 °C and centrifuged at 3400 rpm for 5 min. Finally, 100 μl of the supernatant was transferred and measured in a 96-well plate. Hemoglobin release was monitored by photometric analysis of the supernatant at 540 nm using an Epoch Microplate Spectrophotometer (BioTek Instruments, Inc. Winooski, Vermont 05404-0998).
A 3% RBC suspension treated with Tween 20 was used to obtain total lysis as a positive control. Other authors who performed hemolysis assays have also considered this and other detergents, such as Triton X-100 and Sodium Dodecyl Sulfate (SDS) as positive controls ([113], [114], [115], [116]). The negative control was a suspension of red blood cells with PBS. Each experiment was performed in triplicate at all concentrations used. The percentage of hemolysis was calculated with the following (Equation 1), where Ad: absorbance of the dilution, A0: absorbance of the blank (RBC suspension with PBS), and At: total absorbance (positive control).(1) %hemolysis=Ad−A0/At−A0x100

The next data set has as its target T1, TREK-1 (Homo sapiens, UniProt O95069).
T1 construct: expressed in transfected cells; host or cells: Xenopus laevis oocytes injected with cRNA
T1 sequence (O95069 1-426): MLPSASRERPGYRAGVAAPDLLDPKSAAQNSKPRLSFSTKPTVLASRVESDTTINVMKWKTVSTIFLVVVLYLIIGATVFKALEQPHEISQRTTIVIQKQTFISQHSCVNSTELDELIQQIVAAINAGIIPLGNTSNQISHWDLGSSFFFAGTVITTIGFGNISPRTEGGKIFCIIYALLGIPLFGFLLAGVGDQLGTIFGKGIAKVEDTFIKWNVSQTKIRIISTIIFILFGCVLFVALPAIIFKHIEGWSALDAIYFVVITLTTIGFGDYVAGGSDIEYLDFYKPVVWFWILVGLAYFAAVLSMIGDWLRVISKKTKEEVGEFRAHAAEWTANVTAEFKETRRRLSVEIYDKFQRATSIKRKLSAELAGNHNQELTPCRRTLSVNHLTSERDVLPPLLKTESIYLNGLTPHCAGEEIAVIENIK
Put plainly: TEVC selectivity in X. laevis oocytes, TREK-1. The data set is classed as cell-based. To be noted: mean ± SD, n = 4, read-out: Effect on TREK-1 (inhibition; negative = activating). How it is done:
After confirming compound 6f simultaneous blockade of TASK-1, KV1.5, and NaV1.5, other cardiac channels (Kir2.1, TREK-1, TASK-4) were tested for selectivity at 100 μM (Fig. 8).
To obtain X. laevis oocytes, the frogs were anesthetized with 2 g/L of tricaine methanesulfonate, and the ovarian lobes were mechanically separated with forceps. The oocytes were incubated for 120 min in an OR2 solution containing in mM: NaCl 82.5, KCl 2, MgCl2 1, HEPES 5 (pH 7.5) supplemented with 2 mg/ml of collagenase II (Sigma) to remove residual connective tissue and obtain individual oocytes. […]
In order to overexpress the channel in the oocyte, each of the channels to be measured was subcloned (complementary DNA (cDNA); human TASK-1 (KCNK3, NM_002246), h KV1.5 (KCNA5, NM_002234), h NaV1.5 (hH1, M77235), TASK-4/TALK-2 (KCNK17, NM_AF358910), TREK-1 (KCNK2, AF004711) and Kir2.1 (KCNJ2, NM_017296) into pSGEM, pBF1 or pSP64 expression vector, and the cDNA was linearized with NheI or MluI. Complementary RNA (cRNA) was synthesized with the mMESSAGE mMACHINE-Kit (Ambion). The quality of the cRNA was tested on an agarose gel by electrophoresis. cRNA was quantified using a UV-Vis spectrophotometer (NanoDrop 2000). […] After this time, the overexpression of each channel was monitored through electrophysiology. […]

Molecules are shown by their SMILES.

For `CCCCN(CCCC)CC(=O)Nc1ccc(OC)cc1OC` [Compound 6f, 2-(dibutylamine)-N-(2,4-dimethoxiphenyl)acetamide], in the data set on human erythrocytes, the Hemolytic effect result is recorded as “no hemolytic effect”. The inhibition (commonly the drop in the measured response relative to a control, in per cent) at 100 µM on TREK-1 is -8.71%.

Source of the values: paper PMC12131194, “Rational design, synthesis, and evaluation of novel polypharmacological compounds targeting NaV1.5, KV1.5, and K2P channels for atrial fibrillation” (The Journal of Biological Chemistry, 2025).
